Experimental data as given in PMC12408683 (Archives of Toxicology, 2025).

How the values were obtained:
[1] = parameters: method as in Carlsson et al. 2022; conditions: ref Carlsson et al. 2022; cited from earlier work
[2] = parameters: method as in Carlsson et al. 2022; conditions: concentrations below 25 µM; ref Carlsson et al. 2022; cited from earlier work
human liver biopsies = test system: human liver biopsies; parameters: method as in Herrmann et al. 2013; conditions: ref Herrmann et al. 2013; cited from earlier work
HepG2-CYP1A2 cells [3] = conditions: positive control
Protocol: The CBMN assay was performed according to the OECD test guideline #487. Therefore, 2 × 10^5 cells were seeded in 3.5 cm dishes and allowed to adhere for 24 h. […] After the 24 h treatment, the medium was discarded and the cells were incubated with fresh medium, containing 6 µg/mL cytochalasin B as cytokinesis inhibitor. The cells were then left to grow for 72 h, allowing for 1.5–2 × cell cycles. Subsequently, the cells were rinsed with PBS and fixed with ice-cold methanol for 10 min at –20 °C. Cells were washed and embedded with Vectashield® containing DAPI (Vector Labs, Burlingame, CA, USA). The samples were analysed with a Zeiss Axio Observer 7 microscope equipped with an Axiocam 305 mono and a 63 × oil immersion objective (plan-apochromat 63x/1.40 DIC M27) using ZEN Software 3.2. 500 binucleated cells per sample were analysed for micronuclei formation.
As benchmark response (BMR) for all concentration–response curves (adducts, micronuclei), a 2.0-fold increase vs. solvent control was used (BMC100, critical effect size = 1). The determined BMC100 and the corresponding upper and lower boundary (BMCU and BMCL, respectively) of the 90% confidence interval (CI) were used for potency comparison.

calf thymus DNA = test system: calf thymus DNA; parameters: method as in Bergau et al. 2021; conditions: ref Bergau et al. 2021; cited from earlier work
HepG2 cells [4] = assay: Resazurin reduction assay (cytotoxicity) in HepG2 cells; conditions: positive control 10 µM, time-dependent
HepG2-CYP1A2 cells [5] = assay: Alkaline comet assay (DNA strand breaks) in HepG2-CYP1A2 cells; conditions: positive control, 200 µM, 20 min
Protocol: (§1) As a positive control, tBuOOH (20 min, 200 µM) was used. Subsequently, the alkaline comet assay was performed to quantify DNA strand breaks as previously described (Haas et al. [2023b]). Per sample, at least 50 comets were counted with Comet IV software (Instem, Staffordshire, UK) using a Zeiss Axio Observer 7 microscope equipped with an Axiocam 305 mono and ZEN 3.2 software (Carl Zeiss, Jena, Germany).

HepG2 cells [6] = conditions: positive control, 200 µM, 20 min
Protocol: as §1

For `C=CC(O)c1ccc(OC)c(OC)c1` (centres unmarked) [1′OH-ME, 1′-hydroxymethyleugenol], the “alkaline comet assay outcome” value [1] is given as “negative” and the cytotoxicity [2] is given as “not cytotoxic”.
In the case of `C=CCc1ccc(OC)c(OC)c1` [ME, methyleugenol], the “ME-derived DNA adducts, median” value (human liver biopsies) is listed as 13 adducts/10^8 nts.
In the case of `CO[C@@]12[C@H](COC(N)=O)C3=C(C(=O)C(C)=C(N)C3=O)N1C[C@@H]1N[C@@H]12` [MMC, mitomycin C, reference compound], the “MN (CBMN)” value (HepG2-CYP1A2 cells [3]) is reported as “robust increase in MN”.
For `C/C=C/c1ccc(OC)cc1` [anethole], the “E3′-N2-dG adduct levels vs equimolar ES concentrations” value (calf thymus DNA) is given as “several times lower”.
For `COc1cc([C@@H]2c3cc4c(cc3[C@@H](O[C@@H]3O[C@@H]5CO[C@@H](C)O[C@H]5[C@H](O)[C@H]3O)[C@H]3COC(=O)[C@H]23)OCO4)cc(OC)c1O` [etoposide, reference compound], the “cytotoxicity (resazurin reduction assay)” value (HepG2 cells [4]) was “cytotoxic”.
In the case of `CC(C)(C)OO` [tBuOOH, tert-butyl hydroperoxide, reference compound], the “DNA strand breaks (alkaline comet assay)” value (HepG2-CYP1A2 cells [5]) is reported as “strong DNA strand break induction” and the “DNA strand breaks (alkaline comet assay)” value (HepG2 cells [6]) is reported as “strong DNA strand break induction”.
